{
  "source": "patent US11052154B2",
  "about": "“Ras protein degradation inducing molecule and pharmaceutical composition” (Tokyo University of Science Foundation, priority 2016, dated 2021)",
  "key": {"HeLa cells": {"test_system": "HeLa cells", "test": "Apoptosis induction in HeLa cells, FACS analysis (Annexin V/PI)", "assay_type": "cell-based, human", "conditions": "HeLa cells expressing wild-type K-Ras, 24 hours after addition; FIGS. 6A, 7A", "description": "In Example 7, apoptosis induction in a case where TUS-007, Ras-SOS, or Ras-SOS-NH2 was added to HeLa cells or SW1990 cells (human pancreatic cancer cells) had been added was evaluated by the FACS analysis. It is noted that in HeLa cells, the wild-type K-Ras protein (K-Ras-WT) is expressed, and in SW1990 cells, the G12D mutant K-Ras protein (K-Ras-G12D) is expressed.\nHeLa cells or SW1990 cells were seeded in a 24-well plate at a cell density of 8×10^4 cells/well, and then cultured under conditions of 37° C. and 5 vol % CO2 for 16 hours.\nAfter 16 hours from cell seeding, TUS-007, Ras-SOS, or Ras-SOS-NH2 were added to HeLa cells or SW1990 cells as follows. As a medium, a serum-free medium (37° C.) in which 1 mass % L-glutamine solution (Sigma-Aldrich) was added to D-MEM (high D-glucose, phenol red, sodium pyruvate (Wako Pure Chemical Industries, Ltd.)) was used. It is noted that the L-glutamine solution was added immediately before use. A DMSO solution containing TUS-007, Ras-SOS, or Ras-SOS-NH2 was mixed with the medium so that the concentration of DMSO was 1 vol %, and added to each well at 500 μL/well, and cultured under conditions of 37° C. and 5 vol % CO2. As a control, DMSO was used.\nThe medium was removed 24 hours after addition of TUS-007, Ras-SOS, or Ras-SOS-NH2, and then PBS was added to wash the cells. After removing PBS, trypsin (0.25 w/v % trypsin-1 mmol/L EDTA⋅4 Na solution with phenol red) (Wako Pure Chemical Industries, Ltd.) at 37° C. was added to each well at 200 μL/well, and cultured under conditions of 37° C. and 5 vol % CO2 for 1 minute. […]\nA BD FACSCanto™ II (BD Biosciences) was used for flow cytometry. […] The proportion of Annexin V-positive and PI-negative cells was calculated using an analysis software FlowJo™ (TOMY Digital Biology Co., Ltd.), and the proportion was defined as a proportion of apoptosis cells.\nIn Example 8, apoptosis induction in a case where TUS-007, Ras-SOS-NH2, or erlotinib as an anticancer agent (EGFR inhibitor) was added to HeLa cells or SW1990 cells was evaluated by FACS analysis as in Example 7."}, "[1]": {"molecular_target": "T1, endogenous wild-type K-Ras protein (Mus musculus, UniProt P32883)", "T1 construct": "an endogenous wild-type K-Ras protein and wild-type H-Ras protein; from tissue; host or cells: mouse pancreas and colon", "T1 sequence (P32883 whole entry)": "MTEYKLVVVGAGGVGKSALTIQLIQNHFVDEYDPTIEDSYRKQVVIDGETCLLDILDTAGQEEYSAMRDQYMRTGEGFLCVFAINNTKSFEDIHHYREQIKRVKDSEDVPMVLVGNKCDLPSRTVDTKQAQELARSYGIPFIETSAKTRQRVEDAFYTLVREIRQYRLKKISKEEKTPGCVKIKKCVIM", "test": "Degradation of endogenous wild-type K-Ras protein in mouse pancreas and colorectal tissue, Western blot analysis", "assay_type": "in vivo", "conditions": "C57BL/6J mice, intraperitoneal, 48 hours, FIG. 8", "description": "In Example 9, in a mouse individual to which TUS-007 had been administered, the degradation (knockdown) of an endogenous wild-type K-Ras protein and wild-type H-Ras protein was evaluated by Western blot analysis.\nTUS-007 was dissolved in DMSO, and then dissolved in corn oil so that the concentration of DMSO was 10 vol %, and then intraperitoneally administered to C57BL/6J wild-type mice (8 to 9 weeks old, male) (CLEA Japan, Inc.) in an amount of 40 mg/kg body weight or 80 mg/kg body weight (n=3 to 4). Furthermore, in addition to a group in which TUS-007 was administered, a group in which Ras-SOS had been administered in a dose of 80 mg/kg body weight was prepared. As a control, an injection carrier (corn oil containing 10 vol % DMSO) was used. The mice were kept under an environment of ad libitum access to food and water. The mice were dissected under deep anesthesia 48 hours after administration. The pancreas and colon were excised, and flash frozen in liquid nitrogen.\nThe frozen pancreas and colon were each triturated, and then TKM tissue lysis buffer (50 mM triethanolamine (pH 7.8), 50 mM KCl, 5 mM MgCl2, 0.25 M sucrose, 1 mM PMSF, Protein Inhibitors Cocktail-EDTA free (Nacalai Tesque, Inc.), 1 mM DTT, and a recombinant RNase inhibitor (0.2 U/μL, Takara Bio) were added, and subjected to centrifugation (at 13800 rpm×30 minutes, 4° C.), and the supernatants (pancreatic tissue extract and colorectal tissue extract) were collected. The concentration of the extracted proteins was quantified with a spectrophotometer.\nEach tissue extract collected was subjected to Western blot analysis. […]\nAfter electrophoresis, proteins were transferred to a PVDF membrane (Immobion™-P, Millipore) under conditions of 200 mA and 90 minutes using a tank-type blotting device and a transfer buffer (25 mM Tris-HCl, 195 mM glycine, 0.01% SDS, 15% methanol). […] Subsequently, the membrane was treated with a chemiluminescence reagent Immobilon™ Western (Millipore), and then chemiluminescence was detected using a lumino image analyzer LAS-3000 (FUJIFILM Corporation)."}},
  "data": [
    {"compound": "CCC(C)[C@H](NC(=O)CCCCCCNC(=O)[C@H](CC(C)C)NC(=O)CNC(=O)c1cc(Cl)ccc1Cl)C(=O)Nc1ccc2[nH]c(Cc3c[nH]c4ccccc34)nc2c1", "note": "(stereo in doubt) [TUS-007]", "values": [
      {"measurement": "apoptosis induction (proportion of Annexin V-positive and PI-negative cells)", "setting": "HeLa cells", "value": "apoptosis was induced in a concentration-dependent manner"},
      {"measurement": "amount of the endogenous wild-type K-Ras protein in the pancreatic tissue (Western blot)", "setting": "[1]; 40 or 80 mg/kg, pancreatic tissue", "value": "remarkably reduced in the pancreatic tissue"},
      {"measurement": "amount of the endogenous wild-type K-Ras protein in mouse tissues (Western blot)", "setting": "[1]; TUS-007 40 or 80 mg/kg, Ras-SOS 80 mg/kg, pancreas and colon", "value": "reduced in a concentration-dependent manner"}
    ]}
  ]
}
